Measurements published in PubChem BioAssay (NCI).
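Five compound concentrations were applied to cells in 96-well plates for 48 hours; endpoints were derived by simple linear interpolation of the resulting dose-response curve. Abbreviation: GI50, concentration required for 50% inhibition of growth. TGI: total growth inhibition.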

Key:
Assay in all cases: inhibition of tumour cell growth, NCI panel, 48 h
HS 578T breast = system: HS 578T breast
OVCAR-5 ovarian = system: OVCAR-5 ovarian
SW-620 colon = system: SW-620 colon
CCRF-CEM leukemia = system: CCRF-CEM leukemia
KM12 colon = system: KM12 colon
CAKI-1 renal = system: CAKI-1 renal
UACC-257 melanoma = system: UACC-257 melanoma
SNB-19 CNS = system: SNB-19 CNS
NCI-H226 lung = system: NCI-H226 lung
SK-MEL-5 melanoma = system: SK-MEL-5 melanoma
U251 CNS = system: U251 CNS
SN12C renal = system: SN12C renal
HCT-116 colon = system: HCT-116 colon
SK-OV-3 ovarian = system: SK-OV-3 ovarian
HT29 colon = system: HT29 colon
IGROV1 ovarian = system: IGROV1 ovarian
NCI-H23 lung = system: NCI-H23 lung
OVCAR-8 ovarian = system: OVCAR-8 ovarian
HCT-15 colon = system: HCT-15 colon
SF-295 CNS = system: SF-295 CNS
BT-549 breast = system: BT-549 breast
RPMI-8226 leukemia = system: RPMI-8226 leukemia
SK-MEL-28 melanoma = system: SK-MEL-28 melanoma
T-47D breast = system: T-47D breast
PC-3 prostate = system: PC-3 prostate
EKVX NSCLC = system: EKVX NSCLC
OVCAR-4 ovarian = system: OVCAR-4 ovarian
A498 renal = system: A498 renal
LOX IMVI melanoma = system: LOX IMVI melanoma
OVCAR-3 ovarian = system: OVCAR-3 ovarian
COLO 205 colon = system: COLO 205 colon
786-0 renal = system: 786-0 renal
NCI-H522 lung = system: NCI-H522 lung
MDA-MB-435 = system: MDA-MB-435
SF-268 CNS = system: SF-268 CNS
A549 NSCLC = system: A549 NSCLC
ACHN renal = system: ACHN renal
SNB-75 CNS = system: SNB-75 CNS
NCI/ADR-RES ovarian = system: NCI/ADR-RES ovarian
HCC-2998 colon = system: HCC-2998 colon
K-562 leukemia = system: K-562 leukemia
MOLT-4 leukemia = system: MOLT-4 leukemia
MCF7 breast = system: MCF7 breast
UACC-62 melanoma = system: UACC-62 melanoma
NCI-H460 lung = system: NCI-H460 lung
SK-MEL-2 melanoma = system: SK-MEL-2 melanoma
DU-145 prostate = system: DU-145 prostate
HOP-92 NSCLC = system: HOP-92 NSCLC
HL-60(TB) leukemia = system: HL-60(TB) leukemia
M14 melanoma = system: M14 melanoma
TK-10 renal = system: TK-10 renal
SR leukemia = system: SR leukemia
UO-31 renal = system: UO-31 renal
HOP-62 NSCLC = system: HOP-62 NSCLC
SF-539 CNS = system: SF-539 CNS
MDA-MB-231 breast = system: MDA-MB-231 breast
MALME-3M melanoma = system: MALME-3M melanoma

COc1ccc(-c2cnc(NC(=O)CCCCCCNC(=O)C(O)(O)C(F)(F)F)s2)cc1 showed a GI50 (HS 578T breast) of 0.952 µM, a TGI (HS 578T breast) of 10.5 µM and a GI50 (OVCAR-5 ovarian) of 0.907 µM. The TGI (OVCAR-5 ovarian) was 5.5 µM, the GI50 (SW-620 colon) was 0.623 µM and the TGI (SW-620 colon) was 2.36 µM. For the same compound, the GI50 (CCRF-CEM leukemia) was 1.34 µM, the TGI (CCRF-CEM leukemia) was greater than 30.8 µM and the GI50 (KM12 colon) was 1.08 µM. The TGI (KM12 colon) was 5.48 µM, the GI50 (CAKI-1 renal) was 0.975 µM and the TGI (CAKI-1 renal) was 7.45 µM. The GI50 (UACC-257 melanoma) was 1.57 µM, the TGI (UACC-257 melanoma) was 24.6 µM and the GI50 (SNB-19 CNS) was 1.28 µM. The TGI (SNB-19 CNS) was 9.44 µM, the GI50 (NCI-H226 lung) was 2.2 µM and the TGI (NCI-H226 lung) was 12 µM. For the same compound, the GI50 (SK-MEL-5 melanoma) was 0.921 µM, the TGI (SK-MEL-5 melanoma) was 2.86 µM and the GI50 (U251 CNS) was 0.862 µM. It also gave a TGI (U251 CNS) of 3.78 µM, a GI50 (SN12C renal) of 1.21 µM and a TGI (SN12C renal) of 10.6 µM. For the same compound, the GI50 (HCT-116 colon) was 0.54 µM, the TGI (HCT-116 colon) was 4.41 µM and the GI50 (SK-OV-3 ovarian) was 0.863 µM. It also gave a TGI (SK-OV-3 ovarian) of 2.27 µM, a GI50 (HT29 colon) of 0.946 µM and a TGI (HT29 colon) greater than 30.8 µM. It also gave a GI50 (IGROV1 ovarian) of 0.987 µM, a TGI (IGROV1 ovarian) of 5.31 µM and a GI50 (NCI-H23 lung) of 1.23 µM. It also gave a TGI (NCI-H23 lung) of 8.08 µM, a GI50 (OVCAR-8 ovarian) of 0.967 µM and a TGI (OVCAR-8 ovarian) of 6.85 µM. For the same compound, the GI50 (HCT-15 colon) was 1.6 µM, the TGI (HCT-15 colon) was 8.01 µM and the GI50 (SF-295 CNS) was 0.742 µM. For the same compound, the TGI (SF-295 CNS) was 1.82 µM, the GI50 (BT-549 breast) was 1.81 µM and the TGI (BT-549 breast) was 12.9 µM. It also gave a GI50 (RPMI-8226 leukemia) of 0.857 µM, a TGI (RPMI-8226 leukemia) greater than 30.8 µM and a GI50 (SK-MEL-28 melanoma) of 1.37 µM. For the same compound, the TGI (SK-MEL-28 melanoma) was greater than 30.8 µM, the GI50 (T-47D breast) was 0.864 µM and the TGI (T-47D breast) was 3.78 µM. For the same compound, the GI50 (PC-3 prostate) was 1.21 µM, the TGI (PC-3 prostate) was greater than 30.8 µM and the GI50 (EKVX NSCLC) was 1.97 µM. The TGI (EKVX NSCLC) was greater than 30.8 µM, the GI50 (OVCAR-4 ovarian) was 2.11 µM and the TGI (OVCAR-4 ovarian) was greater than 30.8 µM. For the same compound, the GI50 (A498 renal) was 0.288 µM, the TGI (A498 renal) was 1.53 µM and the GI50 (LOX IMVI melanoma) was 0.678 µM. It also gave a TGI (LOX IMVI melanoma) of 1.76 µM, a GI50 (OVCAR-3 ovarian) of 0.635 µM and a TGI (OVCAR-3 ovarian) of 2.11 µM. For the same compound, the GI50 (COLO 205 colon) was 0.54 µM, the TGI (COLO 205 colon) was 1.28 µM and the GI50 (786-0 renal) was 1.27 µM. It also gave a TGI (786-0 renal) of 15.1 µM, a GI50 (NCI-H522 lung) of 0.908 µM and a TGI (NCI-H522 lung) of 4.56 µM. It also gave a GI50 (MDA-MB-435) of 1 µM, a TGI (MDA-MB-435) of 10.2 µM and a GI50 (SF-268 CNS) of 1.13 µM. The TGI (SF-268 CNS) was 6.26 µM, the GI50 (A549 NSCLC) was 1.38 µM and the TGI (A549 NSCLC) was 11.5 µM. For the same compound, the GI50 (ACHN renal) was 1.01 µM, the TGI (ACHN renal) was 4.19 µM and the GI50 (SNB-75 CNS) was 1.76 µM. For the same compound, the TGI (SNB-75 CNS) was greater than 30.8 µM, the GI50 (NCI/ADR-RES ovarian) was 1.61 µM and the TGI (NCI/ADR-RES ovarian) was 8.78 µM. It also gave a GI50 (HCC-2998 colon) of 1.36 µM, a TGI (HCC-2998 colon) of 4.53 µM and a GI50 (K-562 leukemia) of 0.709 µM. The TGI (K-562 leukemia) was greater than 30.8 µM, the GI50 (MOLT-4 leukemia) was 1.1 µM and the TGI (MOLT-4 leukemia) was greater than 30.8 µM. It also gave a GI50 (MCF7 breast) of 1.31 µM, a TGI (MCF7 breast) greater than 30.8 µM and a GI50 (UACC-62 melanoma) of 0.662 µM. For the same compound, the TGI (UACC-62 melanoma) was 1.88 µM, the GI50 (NCI-H460 lung) was 0.735 µM and the TGI (NCI-H460 lung) was 5.79 µM. It also gave a GI50 (SK-MEL-2 melanoma) of 1.01 µM, a TGI (SK-MEL-2 melanoma) of 4.49 µM and a GI50 (DU-145 prostate) of 1.03 µM. The TGI (DU-145 prostate) was 7.67 µM, the GI50 (HOP-92 NSCLC) was 0.561 µM and the TGI (HOP-92 NSCLC) was 2.11 µM. For the same compound, the GI50 (HL-60(TB) leukemia) was 1.4 µM, the TGI (HL-60(TB) leukemia) was greater than 30.8 µM and the GI50 (M14 melanoma) was 1.45 µM. It also gave a TGI (M14 melanoma) greater than 30.8 µM, a GI50 (TK-10 renal) of 0.481 µM and a TGI (TK-10 renal) greater than 30.8 µM. For the same compound, the GI50 (SR leukemia) was 0.601 µM, the TGI (SR leukemia) was greater than 30.8 µM and the GI50 (UO-31 renal) was 0.904 µM. It also gave a TGI (UO-31 renal) of 3.98 µM, a GI50 (HOP-62 NSCLC) of 1.14 µM and a TGI (HOP-62 NSCLC) greater than 30.8 µM. For the same compound, the GI50 (SF-539 CNS) was 1.37 µM, the TGI (SF-539 CNS) was greater than 30.8 µM and the GI50 (MDA-MB-231 breast) was 0.719 µM. It also gave a TGI (MDA-MB-231 breast) of 2.5 µM, a GI50 (MALME-3M melanoma) of 1.02 µM and a TGI (MALME-3M melanoma) of 3.36 µM.
